Reference: PMC5078040 (Oncotarget, 2016)

What was measured:
Experiment in all cases: KinomeScan
Format in all cases: binding
Settings in all cases: 1uM
AURKA = biological target: T1, AURKA (Homo sapiens, UniProt O14965)
T1 construct: purchased DiscoveRx KINOMEscan

BRAF(V600E) = biological target: T2, BRAF(V600E) (Homo sapiens, UniProt P15056, V600E)
T2 construct: purchased DiscoveRx KINOMEscan

CAMK1 = biological target: T3, CAMK1 (Homo sapiens, UniProt Q14012)
T3 construct: purchased DiscoveRx KINOMEscan

DDR1 = biological target: T4, DDR1 (Homo sapiens, UniProt Q08345)
T4 construct: purchased DiscoveRx KINOMEscan

ERN1 = biological target: T5, ERN1 (Homo sapiens, UniProt O75460)
T5 construct: purchased DiscoveRx KINOMEscan

FLT3(D835H) = biological target: T6, FLT3(D835H) (Homo sapiens, UniProt P36888, D835H)
T6 construct: purchased DiscoveRx KINOMEscan

ITK = biological target: T7, ITK (Homo sapiens, UniProt Q08881)
T7 construct: purchased DiscoveRx KINOMEscan

LIMK2 = biological target: T8, LIMK2 (Homo sapiens, UniProt P53671)
T8 construct: purchased DiscoveRx KINOMEscan

LRRK2 = biological target: T9, LRRK2 (Homo sapiens, UniProt Q5S007)
T9 construct: purchased DiscoveRx KINOMEscan

MAP4K5 = biological target: T10, MAP4K5 (Homo sapiens, UniProt Q9Y4K4)
T10 construct: purchased DiscoveRx KINOMEscan

MEK5 = biological target: T11, MEK5 (Homo sapiens, UniProt Q13163)
T11 construct: purchased DiscoveRx KINOMEscan

MET(Y1235D) = biological target: T12, MET(Y1235D) (Homo sapiens, UniProt P08581, Y1235D)
T12 construct: purchased DiscoveRx KINOMEscan

NEK3 = biological target: T13, NEK3 (Homo sapiens, UniProt P51956)
T13 construct: purchased DiscoveRx KINOMEscan

PAK1 = biological target: T14, PAK1 (Homo sapiens, UniProt Q13153)
T14 construct: purchased DiscoveRx KINOMEscan

PRKCQ = biological target: T15, PRKCQ (Homo sapiens, UniProt Q04759)
T15 construct: purchased DiscoveRx KINOMEscan

QSK = biological target: T16, QSK (Homo sapiens, UniProt Q9Y2K2)
T16 construct: purchased DiscoveRx KINOMEscan

RET(M918T) = biological target: T17, RET(M918T) (Homo sapiens, UniProt P07949, M918T)
T17 construct: purchased DiscoveRx KINOMEscan

[1] = biological target: T18, RSK2(Kin.Dom.2-C-terminal) (Homo sapiens, UniProt P51812)
T18 construct: RSK2(Kin.Dom.2-C-terminal); purchased DiscoveRx KINOMEscan

SRPK1 = biological target: T19, SRPK1 (Homo sapiens, UniProt Q96SB4)
T19 construct: purchased DiscoveRx KINOMEscan

TAOK1 = biological target: T20, TAOK1 (Homo sapiens, UniProt Q7L7X3)
T20 construct: purchased DiscoveRx KINOMEscan

TLK1 = biological target: T21, TLK1 (Homo sapiens, UniProt Q9UKI8)
T21 construct: purchased DiscoveRx KINOMEscan

ZAK = biological target: T22, ZAK (Homo sapiens, UniProt Q9NYL2)
T22 construct: purchased DiscoveRx KINOMEscan

T19 sequence (Q96SB4 whole entry): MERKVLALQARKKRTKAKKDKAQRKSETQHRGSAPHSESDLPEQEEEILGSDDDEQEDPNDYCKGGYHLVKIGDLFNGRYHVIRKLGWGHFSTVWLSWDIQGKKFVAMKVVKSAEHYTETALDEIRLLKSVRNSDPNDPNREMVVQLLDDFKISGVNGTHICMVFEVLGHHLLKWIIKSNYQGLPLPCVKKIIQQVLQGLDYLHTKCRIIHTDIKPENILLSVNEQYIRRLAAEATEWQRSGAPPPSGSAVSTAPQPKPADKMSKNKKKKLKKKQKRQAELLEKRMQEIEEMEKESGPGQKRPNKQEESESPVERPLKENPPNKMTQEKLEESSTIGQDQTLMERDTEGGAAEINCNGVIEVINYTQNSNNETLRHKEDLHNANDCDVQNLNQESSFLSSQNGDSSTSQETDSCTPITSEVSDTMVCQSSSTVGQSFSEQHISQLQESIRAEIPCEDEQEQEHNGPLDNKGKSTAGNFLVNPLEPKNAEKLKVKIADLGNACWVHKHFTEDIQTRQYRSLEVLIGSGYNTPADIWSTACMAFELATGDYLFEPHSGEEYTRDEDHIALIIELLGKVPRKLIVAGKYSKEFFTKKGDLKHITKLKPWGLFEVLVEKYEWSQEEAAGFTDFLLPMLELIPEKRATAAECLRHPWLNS
T8 sequence (P53671 whole entry): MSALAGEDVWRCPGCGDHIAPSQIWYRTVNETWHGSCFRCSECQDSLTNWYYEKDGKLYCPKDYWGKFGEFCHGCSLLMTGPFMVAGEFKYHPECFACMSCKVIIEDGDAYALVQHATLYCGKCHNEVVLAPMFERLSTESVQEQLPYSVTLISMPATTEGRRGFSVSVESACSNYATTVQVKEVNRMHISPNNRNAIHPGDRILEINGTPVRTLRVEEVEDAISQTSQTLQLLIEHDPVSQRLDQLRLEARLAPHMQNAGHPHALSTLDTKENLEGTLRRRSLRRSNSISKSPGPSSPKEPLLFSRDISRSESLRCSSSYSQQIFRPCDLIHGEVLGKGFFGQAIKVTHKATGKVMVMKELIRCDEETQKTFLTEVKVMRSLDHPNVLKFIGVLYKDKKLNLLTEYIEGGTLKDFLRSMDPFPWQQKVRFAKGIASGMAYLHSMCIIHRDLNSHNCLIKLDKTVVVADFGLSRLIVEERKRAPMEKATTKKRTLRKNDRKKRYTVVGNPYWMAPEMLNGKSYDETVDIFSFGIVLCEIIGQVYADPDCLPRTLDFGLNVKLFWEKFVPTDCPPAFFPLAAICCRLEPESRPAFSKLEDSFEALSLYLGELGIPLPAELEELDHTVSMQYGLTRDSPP
T20 sequence (Q7L7X3 whole entry): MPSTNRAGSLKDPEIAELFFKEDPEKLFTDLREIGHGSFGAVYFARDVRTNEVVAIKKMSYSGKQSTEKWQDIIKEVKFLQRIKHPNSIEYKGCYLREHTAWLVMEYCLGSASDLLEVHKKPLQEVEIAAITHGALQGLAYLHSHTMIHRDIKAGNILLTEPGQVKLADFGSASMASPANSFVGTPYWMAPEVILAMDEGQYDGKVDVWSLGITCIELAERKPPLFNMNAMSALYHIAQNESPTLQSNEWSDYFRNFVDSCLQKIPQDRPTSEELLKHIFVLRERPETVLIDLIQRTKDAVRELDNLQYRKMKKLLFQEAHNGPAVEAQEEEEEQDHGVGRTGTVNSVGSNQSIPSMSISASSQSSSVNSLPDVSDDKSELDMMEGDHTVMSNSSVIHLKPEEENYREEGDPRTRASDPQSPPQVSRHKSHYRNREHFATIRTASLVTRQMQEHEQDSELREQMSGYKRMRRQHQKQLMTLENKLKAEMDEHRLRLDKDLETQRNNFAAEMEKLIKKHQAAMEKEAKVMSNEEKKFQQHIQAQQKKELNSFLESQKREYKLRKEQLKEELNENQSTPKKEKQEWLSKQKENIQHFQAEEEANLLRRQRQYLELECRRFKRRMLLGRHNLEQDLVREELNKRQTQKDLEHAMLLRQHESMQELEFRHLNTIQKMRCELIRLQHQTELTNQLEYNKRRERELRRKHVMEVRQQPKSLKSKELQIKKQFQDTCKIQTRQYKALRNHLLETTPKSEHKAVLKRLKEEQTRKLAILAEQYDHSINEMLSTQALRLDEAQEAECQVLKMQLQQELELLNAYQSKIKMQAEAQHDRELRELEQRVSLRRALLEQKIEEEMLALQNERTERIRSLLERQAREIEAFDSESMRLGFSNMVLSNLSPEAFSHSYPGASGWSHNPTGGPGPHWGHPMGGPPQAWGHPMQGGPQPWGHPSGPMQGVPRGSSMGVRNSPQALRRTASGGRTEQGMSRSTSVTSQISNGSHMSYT
T1 sequence (O14965 whole entry): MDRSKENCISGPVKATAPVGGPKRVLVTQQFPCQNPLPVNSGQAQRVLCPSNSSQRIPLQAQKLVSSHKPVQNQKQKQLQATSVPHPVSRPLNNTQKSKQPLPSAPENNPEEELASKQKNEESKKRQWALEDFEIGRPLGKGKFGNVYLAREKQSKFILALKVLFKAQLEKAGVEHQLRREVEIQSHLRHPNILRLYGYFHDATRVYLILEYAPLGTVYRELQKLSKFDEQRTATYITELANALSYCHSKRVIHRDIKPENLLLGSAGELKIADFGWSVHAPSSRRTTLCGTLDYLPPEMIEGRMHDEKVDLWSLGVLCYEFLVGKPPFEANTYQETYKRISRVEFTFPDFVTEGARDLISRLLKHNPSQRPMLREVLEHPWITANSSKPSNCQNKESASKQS
T14 sequence (Q13153 whole entry): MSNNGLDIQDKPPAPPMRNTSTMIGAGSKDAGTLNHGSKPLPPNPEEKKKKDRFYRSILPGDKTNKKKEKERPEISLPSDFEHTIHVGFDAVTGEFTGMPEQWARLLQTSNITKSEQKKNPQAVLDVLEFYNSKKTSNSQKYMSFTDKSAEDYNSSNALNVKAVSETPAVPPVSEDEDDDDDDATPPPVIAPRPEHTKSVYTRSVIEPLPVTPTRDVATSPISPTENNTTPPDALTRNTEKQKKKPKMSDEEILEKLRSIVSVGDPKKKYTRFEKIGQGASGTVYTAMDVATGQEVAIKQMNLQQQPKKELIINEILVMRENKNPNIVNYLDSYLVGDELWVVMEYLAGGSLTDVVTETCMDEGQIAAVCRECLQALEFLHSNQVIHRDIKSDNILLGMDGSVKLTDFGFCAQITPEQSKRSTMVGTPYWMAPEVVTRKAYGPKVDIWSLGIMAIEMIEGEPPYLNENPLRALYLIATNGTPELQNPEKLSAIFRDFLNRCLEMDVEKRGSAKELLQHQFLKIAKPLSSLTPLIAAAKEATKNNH
T16 sequence (Q9Y2K2 whole entry): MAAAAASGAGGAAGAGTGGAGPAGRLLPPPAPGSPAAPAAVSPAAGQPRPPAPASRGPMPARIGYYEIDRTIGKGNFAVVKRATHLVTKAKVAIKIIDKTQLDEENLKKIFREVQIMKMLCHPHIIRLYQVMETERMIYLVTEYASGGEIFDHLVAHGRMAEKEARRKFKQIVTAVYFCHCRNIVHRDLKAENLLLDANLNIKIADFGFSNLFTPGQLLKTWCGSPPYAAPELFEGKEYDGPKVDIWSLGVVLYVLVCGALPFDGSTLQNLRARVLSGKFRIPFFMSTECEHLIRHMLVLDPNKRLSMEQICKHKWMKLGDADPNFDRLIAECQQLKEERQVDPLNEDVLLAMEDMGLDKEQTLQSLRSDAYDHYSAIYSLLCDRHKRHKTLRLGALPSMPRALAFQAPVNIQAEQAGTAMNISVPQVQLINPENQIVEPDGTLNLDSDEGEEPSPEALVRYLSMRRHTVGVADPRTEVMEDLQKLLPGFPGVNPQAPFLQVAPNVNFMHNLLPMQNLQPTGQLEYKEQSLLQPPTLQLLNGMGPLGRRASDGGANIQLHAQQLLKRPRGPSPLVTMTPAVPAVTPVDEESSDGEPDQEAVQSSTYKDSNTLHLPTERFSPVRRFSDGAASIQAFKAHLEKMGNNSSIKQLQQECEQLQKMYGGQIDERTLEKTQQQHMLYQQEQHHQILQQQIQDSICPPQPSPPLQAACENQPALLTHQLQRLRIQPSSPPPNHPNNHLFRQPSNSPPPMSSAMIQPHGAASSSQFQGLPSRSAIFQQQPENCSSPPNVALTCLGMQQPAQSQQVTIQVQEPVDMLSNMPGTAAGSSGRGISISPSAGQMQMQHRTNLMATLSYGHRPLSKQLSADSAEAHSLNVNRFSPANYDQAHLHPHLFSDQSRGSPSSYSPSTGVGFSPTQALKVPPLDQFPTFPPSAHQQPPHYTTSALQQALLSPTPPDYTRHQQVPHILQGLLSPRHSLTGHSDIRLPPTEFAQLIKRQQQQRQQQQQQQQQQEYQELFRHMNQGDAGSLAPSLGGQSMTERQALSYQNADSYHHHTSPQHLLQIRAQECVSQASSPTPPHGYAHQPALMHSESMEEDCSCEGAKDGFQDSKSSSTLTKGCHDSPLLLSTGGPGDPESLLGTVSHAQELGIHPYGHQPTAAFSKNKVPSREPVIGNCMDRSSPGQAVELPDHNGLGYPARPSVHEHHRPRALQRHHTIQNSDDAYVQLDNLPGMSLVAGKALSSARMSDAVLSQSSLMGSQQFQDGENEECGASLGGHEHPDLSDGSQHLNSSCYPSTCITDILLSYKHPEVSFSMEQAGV
T3 sequence (Q14012 whole entry): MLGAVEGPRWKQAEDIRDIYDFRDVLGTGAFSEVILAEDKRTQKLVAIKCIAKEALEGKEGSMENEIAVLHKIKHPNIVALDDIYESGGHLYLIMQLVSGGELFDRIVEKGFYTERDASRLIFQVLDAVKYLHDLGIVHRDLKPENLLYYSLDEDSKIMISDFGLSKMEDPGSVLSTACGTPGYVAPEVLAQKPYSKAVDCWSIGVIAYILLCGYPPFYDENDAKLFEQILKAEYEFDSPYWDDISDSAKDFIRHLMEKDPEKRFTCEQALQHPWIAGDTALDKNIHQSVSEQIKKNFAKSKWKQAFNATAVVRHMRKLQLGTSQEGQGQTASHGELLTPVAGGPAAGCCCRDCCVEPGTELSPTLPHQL

Cc1nc(NC(=O)[C@@H](N)C(C)C)sc1-c1cnc(Cl)c(NS(=O)(=O)c2ccccc2)c1 [PI3KD-IN-015]
KinomeScan AURKA (AURKA): 93 | KinomeScan BRAF(V600E) (BRAF(V600E)): 100 | KinomeScan CAMK1 (CAMK1): 98 | KinomeScan DDR1 (DDR1): 100 | KinomeScan ERN1 (ERN1): 92 | KinomeScan FLT3(D835H) (FLT3(D835H)): 94 | KinomeScan ITK (ITK): 100 | KinomeScan LIMK2 (LIMK2): 100 | KinomeScan LRRK2 (LRRK2): 100 | KinomeScan MAP4K5 (MAP4K5): 100 | KinomeScan MEK5 (MEK5): 94 | KinomeScan MET(Y1235D) (MET(Y1235D)): 100 | KinomeScan NEK3 (NEK3): 100 | KinomeScan PAK1 (PAK1): 100 | KinomeScan PRKCQ (PRKCQ): 100 | KinomeScan QSK (QSK): 94 | KinomeScan RET(M918T) (RET(M918T)): 95 | KinomeScan RSK2(Kin.Dom.2-C-terminal) [1]: 100 | KinomeScan SRPK1 (SRPK1): 93 | KinomeScan TAOK1 (TAOK1): 96 | KinomeScan TLK1 (TLK1): 79 | KinomeScan ZAK (ZAK): 100
